Source: patent US20210308089A1, “METHODS OF TREATING AND/OR PREVENTING VIRAL INFECTIONS AND/OR DISEASES CAUSED BY VIRUSES IN A SUBJECT IN NEED THEREOF” (priority 2020, published 2021)

Key:
Assay type in all cases: in vivo, human
[1] = system: statin-treated patients with established atherosclerosis or diabetes and elevated triglycerides; test: REDUCE-IT: total (first and recurrent) ischemic events analysis
Text: The following study was a multi-center, placebo-controlled clinical trial the details of which are described above in Example 1, the REDUCE-IT design. […] Randomization was stratified by cardiovascular risk cohort (i.e., secondary or primary prevention), use of ezetimibe, and by geographic region.
The primary outcome for the study was total recurrent events consisting of the composite of cardiovascular death, nonfatal myocardial infarction, nonfatal stroke, coronary revascularization, or hospitalization for unstable angina. Recurrent event analyses were also performed for the key secondary endpoint, a composite of cardiovascular death, nonfatal myocardial infarction, or nonfatal stroke. For each of these composite endpoints, the effects of icosapent ethyl in the secondary and primary prevention strata were examined separately.
Demographic and baseline disease characteristics are presented using frequencies and percentages for categorical variables and medians with interquartile ranges for continuous variables. Between treatment group comparisons were derived using the chi-square test for categorical variables and Wilcoxon rank test for continuous variables. All clinical endpoint events used in the efficacy analyses were adjudicated by an independent Clinical Endpoint Committee (CEC) who were blinded to the treatment assignment. Since the primary efficacy endpoint was the time from randomization to the first occurrence of any component of the composite endpoint, and recurrence of such events within each patient is possible, a pre-specified analysis using a Cox proportional-hazard with the counting-process formulation of Andersen and Gill was performed to model the first and all recurrent cardiovascular events. HRs and corresponding 95% CIs are reported from this model. In addition, as a marginal model and an extension of survival models based on the Cox proportional hazard model, the modified Wei-Lin-Weissfeld (WLW) method for analysis of recurrent events in the presence of deaths was carried out as a supportive analysis. In addition, as pre-specified, a recurrent event analysis using the Andersen-Gill and Wei-Lin-Weissfeld methods was carried out for the individual primary event components other than CV death. Though not pre-specified, additional recurrent event analyses were performed for the key secondary endpoint, which is a composite of CV death, nonfatal MI, or nonfatal stroke, and for the primary endpoint and the key secondary endpoint in the primary and secondary prevention strata to explore further the consistency of clinical benefit of icosapent ethyl. In subgroup analyses of the two cardiovascular risk strata (i.e., primary and secondary prevention), site-level discrepancies in cardiovascular risk group assignment occurring at entry and detected during the study (1.8%) were adjusted to conform with documented medical history data prior to randomization. All efficacy analyses were performed according to the intention-to-treat principle. All tests were based on a 2-sided nominal significance level of 5% with no adjustments for multiple comparisons.

[2] = system: statin-treated hypertriglyceridemic patients with cardiovascular disease or at high risk for cardiovascular disease; test: REDUCE-IT: time to first occurrence of adjudicated cardiovascular events (primary, secondary, tertiary endpoints), AMR101 4 g/day vs placebo
Text: The following study, also referred to as the REDUCE-IT clinical trial, was a large cardiovascular (CV) outcome trial designed to assess CV risk reduction benefit of AMR101 treatment (commercially known as VASCEPA®) versus placebo on the 5-point primary composite endpoint: CV death, nonfatal stroke, nonfatal myocardial infarction (MI), coronary revascularizations, or unstable angina requiring hospitalization.
A multi-center, prospective, randomized, double-blind, placebo-controlled, parallel-group study was performed to evaluate the effect of AMR101 (4 g per day) on cardiovascular health and mortality in hypertriglyceridemic patients with cardiovascular disease or at high risk for cardiovascular disease. The intended expanded indication of the study was treatment with AMR101 as an add-on to statin therapy to reduce the risk of cardiovascular events in patients with clinical cardiovascular disease or with multiple risk factors for cardiovascular disease.
The primary objective of this study was, in patients at LDL-C goal while on statin therapy, with established cardiovascular disease (CVD) or at high risk for CVD, and hypertriglyceridemia (e.g., fasting triglycerides(TG) ≥200 mg/dL and <500 mg/dL), to evaluate the effect of AMR101 4 g daily on time from randomization to first occurrence of any component of the composite of the following major CV events: CV death; nonfatal MI (including silent MI); electrocardiograms (ECGs) were performed annually for the detection of silent MIs); nonfatal stroke; coronary revascularization; and unstable angina determined to be caused by myocardial ischemia by invasive/non-invasive testing and requiring emergent hospitalization.
The key secondary objective of this study was to evaluate the effect of AMR101 4 g daily on the time from randomization to the first occurrence of the composite of following major CV events: CV death, nonfatal MI (including silent MI), and nonfatal stroke.
Other secondary objectives for this study were to evaluate the effect of therapy on time from randomization to the first occurrence of the following individual or composite endpoints: composite of CV death or nonfatal MI (including silent MI); fatal or nonfatal MI (including silent MI); non-elective coronary revascularization represented as the composite of emergent or urgent classifications; CV death; unstable angina determined to be caused by myocardial ischemia by invasive/non-invasive testing and requiring emergent hospitalization; fatal or nonfatal stroke; composite of total mortality, nonfatal MI (including silent MI), or nonfatal stroke; and total mortality.
Primary Efficacy Endpoint: The primary efficacy endpoint was time from randomization to the first occurrence of the composite of the following clinical events: CV death; nonfatal MI (including silent MI; ECGs were performed annually for the detection of silent MIs); nonfatal stroke; coronary revascularization; and unstable angina determined to be caused by myocardial ischemia by invasive/non-invasive testing and requiring emergent hospitalization. The first occurrence of any of these major adverse vascular events during the follow-up period of the study was included in the incidence.
Secondary Efficacy Endpoints: The key secondary efficacy endpoint was the time from randomization to the first occurrence of the composite of CV death, nonfatal MI (including silent MI), or nonfatal stroke. […]

[3] = system: symptomatic COVID-19 outpatients with positive SARS-CoV-2 test; test: VASCEPA-COVID-19: FLU-PRO symptom prevalence and scores (and correlation with hs-CRP)
[4] = REDUCE-IT ITT, listed as AMR101
[5] = REDUCE-IT ITT, time to first event
[6] = vs placebo, listed as Icosapent Ethyl

## CC/C=C\C/C=C\C/C=C\C/C=C\C/C=C\CCCC(=O)OCC [icosapent ethyl, eicosapentaenoic acid ethyl ester]
[1]; overall trial
  Total primary endpoint events: HR vs placebo: 0.68
[1]; per 100 patients treated for five years
  Total primary endpoint events prevented: approximately 16
[1]; primary prevention stratum, vs placebo
  Total key secondary endpoint: HR: 0.71
[1]; secondary prevention stratum, vs placebo
  Total key secondary endpoint: HR: 0.70
[1]; vs placebo
  First events reduced by: 25%
  Second events reduced by: 28%
  Third or more events reduced by: 50%
  Total events for the primary composite efficacy outcome: relative risk reduction: 32%
[2]; REDUCE-IT ITT
  Amputation for PVD: % of patients: (0.5%)
  Cardiac arrest: % of patients: (0.5%)
  Cardiac arrhythmias requiring hospitalization of ≥24 hours: % of patients: (4.6%)
  Cardiovascular death: HR vs placebo: 0.80
  Cardiovascular death: patients: 4.3%
  Carotid revascularization: % of patients: (0.8%)
  Coronary revascularization: % of patients: (9.2%)
  Elective revascularization: % of patients: (4.7%)
  Emergent revascularization: % of patients: (1.0%)
  Hemorrhagic stroke: % of patients: (0.3%)
  Ischemic stroke: % of patients: (2.0%)
  New heart failure requiring hospitalization: % of patients: (3.4%)
  New heart failure: % of patients: (4.1%)
  Primary endpoint in patients with diabetes at baseline: % of patients: (18.1%)
  Salvage revascularization: % of patients: (0.0%)
  Sudden cardiac death: % of patients: (1.5%)
  Total mortality (death from any cause): patients: 6.7%
  Total mortality: HR vs placebo: 0.87
  Transient ischemic attack: % of patients: (1.6%)
  Urgent revascularization: % of patients: (4.4%)
[2]; [4]
  Hemorrhagic stroke: % of patients: 0.3%
  New heart failure: % of patients: 4.1%
[2]; [5]
  Key secondary composite endpoint: HR vs placebo: 0.74
  Primary composite endpoint: HR vs placebo: 0.75
[2]; patients with diabetes at baseline excluded
  New onset of diabetes: % of patients: (3.8%)
[2]; vs placebo
  Composite of cardiovascular death or nonfatal myocardial infarction: RRR: 25%
  Composite of total mortality, nonfatal myocardial infarction, or nonfatal stroke: reduction (RRR): 23%
  Key secondary composite endpoint: relative risk reduction: 26%
  Primary composite endpoint: relative risk reduction: 25%
  Total mortality: reduction (RRR): 13%
[2]; [6]
  Key secondary composite endpoint: relative risk reduction: 26.5%
  Primary composite endpoint: relative risk reduction: 24.8%
[3]; 14+3-day follow-up
  Total FLU-PRO symptom prevalence reduced by: 52%
[3]; baseline to follow-up
  Reduction in chest/respiratory symptoms (FLU-PRO prevalence): 69%
[3]; baseline to follow-up, patients with non-zero treatment compliance
  Change in mean FLU-PRO score, total domain: −0.16
